Where two headings read alike, the source gives them in different places. Starred links: 1 amine or outer side, 2 acyl side, 3 side chain; linkers in the order of their positions; H or OH if unused. Non-standard residues stand in square brackets, D forms with d. Residues, ends and D or L forms follow the SMILES beside them. *: point of attachment. dNMe2Nal = CN[C@H](Cc1ccc2ccccc2c1)C(=O)O; 2Nal = N[C@@H](Cc1ccc2ccccc2c1)C(=O)O; d2Nal = N[C@H](Cc1ccc2ccccc2c1)C(=O)O; Ethylenediamine = C(CN[*:2])N[*:1]; Tic = O=C(O)[C@@H]1Cc2ccccc2CN1; NHPhenethyl = c1ccc(CCN*)cc1; dOrn = NCCC[C@@H](N)C(=O)O; Inp = O=C(O)C1CCNCC1; Ahx = NCCCCCC(=O)O; Ava = NCCCCC(=O)O; GABA = NCCCC(=O)O
Assays:
[1] = molecular target: rat pituitary cells (Rattus norvegicus, UniProt O08725); conditions: GH release, 15 min incubation
Experimental: Pituitaries from ten rats were removed, the posterior pituitary discarded and the anterior pituitary placed in Hanks' Balanced Salt Solution (HBSS: without calcium chloride, w/o magnesium chloride, w/o magnesium sulfate; Gibco) containing 20 mM HEPES (Gibco) and 100 U/ml penicillin streptomycin (PS: JRH Biosciences). Under sterile conditions, pituitaries were rinsed twice then minced into small fragments with a razor blade. […] After the incubation, fragments were triturated to yield small clumps and single cells. The cells were centrifuged 1000× g for 5 min, resuspended, counted and plated at a final cell concentration of 100,000 cells/ml. Incubation media was DME low glucose media w/NaHCO3 (Gibco) containing 20 mM hepes, 100 U/ml PS and 10% FBS (Hyclone A-111-L). Cells were plated at 0.5 ml per well in 48 well plates (Falcon) and incubated at 37° C. in 5% C02 for three days. For challenges to determine release of other pituitary hormones cells were plated at 200,000 cells per ml with 2 ml per well of a Swell plate (Corning). Challenge: A (inip)bbFK-NH2 stock (or other GHRP) concentration of 1 mM was made in DMSO and diluted with warmed media approximately 30 min prior to use. The highest concentration of DMSO in media was 0.1%. Stock solutions (1 mM) of rat GHRH, somatostatin (Sigma) and GHRP antagonist HwkWfK were made fresh in media and diluted appropriately. The media used in all challenges and washing steps was DME low glucose with 20 mM Hepes, 100 U/ml PS, 10% FBS. Media was warmed to 37° C. and gassed by placing it into the incubator prior to challenge. On day three, the media was discarded and fresh media (approximately 1 ml) added for the first of three washes. After the last wash, the plate was placed back in the incubator for a 15 min pre-incubation. Then cells were washed 2× (with warmed and gassed media) and fresh 0.5 ml media were added for the second 15 min. pre-incubation. After the second pre-incubation cells were washed 2× as above and 0.5 ml of control and test solutions were added for a final 15 min incubation. After this incubation, the media were removed for subsequent GH ELISA. GH ELISA: A two-site ELISA was used to determine rat GH concentration in the media. […] After blocking and washing, standard (rat GH reference preparation: Parlow) and challenge media is diluted 1:20 prior to GH assay were added for a 1 hr room temperature incubation. STATISTICS: The mean for each group was determined and analyzed by one-way analysis of variance with a post-hoc Student-Newman-Keuls. Significance is defined as P<0.05. The EC50 was calculated using a 4-parameter curve-fit program (Kaleidagraph). Three to four independent EC50s were used to derive the mean and SEM. RIA of pituitary hormones: LH, FSH, TSH, and Prolactin were determined with commercially available kits from Amersham, and ACTH levels were determined by a RIA kit from ICN. CALCIUM FLUX EXPERIMENT: Pituitary cells were plated on fibronectin (Collaborative Research) coated two-chambered slide wells (Nunc). After four days in monolayer culture cells were rinsed three times with HBSS (Gibco) in 1% BSA and 15 mM HEPES and then incubated for 30 min at 37° C. with 5 μM Indo-1 AM (Molecular Probes, Eugene) in HBSS also containing 1% pluronic F127 (Molecular Probes). The cells were rinsed once and fresh media added for RT incubation. […] C^++ flux was imaged with a Meridian ACAS 570 using stage scanning at 21 second intervals.

[2] = test system: growth hormone secretion; assay: GHRP induced growth hormone secretion, intravenous administration (Rat IV); type: in vivo; conditions: serum GH 10 min after injection; for RAT IV ED50: iv injection
Experimental: Immature weanling female Sprague Dawley rats were purchased from Charles River Labs (Portage, […].) and group housed with water and food available ad libitum. When the rats were 24-30 days old (weighing 50-90 g) they were anesthetized with pentobarbitone (4 mg in 0.5 ml, approximately 60 mg/kg) given by intraperitoneal injection. The rats were then placed briefly on a heated pad, to distend their tail veins, and given an intravenous tail vein injection of the peptides 20 minutes after receiving the anesthetic. The intravenous injection was of 0.1 ml using a 1 ml syringe. The injections contained graded doses of peptides or the vehicle (vehicle for all peptides given intravenously was a buffer of 20 mM sodium acetate, 45 g/l mannitol, pH 5.0). Ten minutes after the intravenous injection blood was taken by cardiac puncture, using a 3 ml syringe, and the rats were then sacrificed.
The blood was then clotted on ice, centrifuged, serum decanted and frozen for subsequent analysis using the rat GH ELISA described elsewhere in the application. For the rat GH ELISA the serum was diluted 1:50 or 1:250, depending on the expected serum GH concentrations achieved, and assayed in duplicate.

[3] = read-out: PIT Cell EC50, Table V, formula II compounds
[4] = read-out: PIT Cell EC50, Table IV, formula III compounds
[5] = read-out: PIT Cell EC50, Table III, formula IV compounds

Sequence of rat pituitary cells (O08725 whole entry, the tested form may be a part): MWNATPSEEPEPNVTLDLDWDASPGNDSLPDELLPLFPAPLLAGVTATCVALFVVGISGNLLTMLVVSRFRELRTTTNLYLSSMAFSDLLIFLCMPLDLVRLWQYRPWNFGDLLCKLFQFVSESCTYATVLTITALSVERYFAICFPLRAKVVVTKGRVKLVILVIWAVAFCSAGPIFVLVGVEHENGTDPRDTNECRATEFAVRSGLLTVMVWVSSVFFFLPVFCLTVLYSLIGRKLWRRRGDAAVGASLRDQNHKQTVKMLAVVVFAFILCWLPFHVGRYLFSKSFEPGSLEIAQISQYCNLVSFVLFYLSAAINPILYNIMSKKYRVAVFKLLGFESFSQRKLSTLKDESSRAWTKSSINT

## CN(CCc1ccc2ccccc2c1)C(=O)[C@@H](Cc1ccc2ccccc2c1)NC(=O)C1CCNCC1 [(inip) b men, (inip)-DβNal-[N-methyl, N-1-{2-(2-naphthyl)ethyl}] amide]
[1]; [3]
  EC50: 12 nM
[2]; Table V
  RAT IV ED50: 500 µg

## NCCNC(=O)[C@@H](Cc1ccc2ccccc2c1)NC(=O)[C@@H](Cc1ccc2ccccc2c1)NC(=O)C1CCNCC1 [(inip) b b tam] (H-[Inp]-[d2Nal]-[d2Nal]-Ethylenediamine)
[1]; [4]
  EC50: 11 nM
[2]; Table IV
  RAT IV ED50: 20 µg

## CN[C@H](Cc1ccc2ccccc2c1)C(=O)N[C@H](Cc1ccc2ccccc2c1)C(=O)N[C@@H](Cc1ccc(O)cc1)C(=O)N[C@@H](CCCCN)C(N)=O [nmb b Y K amide] (H-[dNMe2Nal][d2Nal]YK-NH2)
[2]; Table III
  RAT IV ED50: 500 µg

## NCCCC[C@H](NC(=O)[C@H](Cc1ccccc1)NC(=O)[C@@H](Cc1c[nH]c2ccccc12)NC(=O)[C@@H](Cc1c[nH]c2ccccc12)NC(=O)[C@@H](N)Cc1c[nH]cn1)C(N)=O [H w w F K amide] (H-H[dW][dW]FK-NH2)
[1]; [5]
  EC50: 25.8 nM
[2]; Table III
  RAT IV ED50: 50 µg

## O=C(N[C@H](Cc1c[nH]c2ccccc12)C(=O)N[C@@H](CO)Cc1c[nH]c2ccccc12)C1CCNCC1 [(inip) w wol]
[1]; [3]
  EC50: 4 nM
[2]; Table V
  RAT IV ED50: 20 µg

## NCCCCC(=O)N[C@H](Cc1ccc2ccccc2c1)C(=O)N[C@H](Cc1ccc2ccccc2c1)C(=O)N[C@@H](Cc1ccccc1)C(=O)N[C@H](CC(N)=O)C(N)=O [(Ava) b b F n amide] (H-[Ava][d2Nal][d2Nal]F[dN]-NH2)
[1]; [5]
  EC50: 10 nM
[2]; Table III
  RAT IV ED50: 12.5 µg

## CN(C(=O)C1CCNCC1)[C@H](Cc1ccc2ccccc2c1)C(=O)N[C@H](Cc1ccc2ccccc2c1)C(=O)N[C@@H](Cc1ccccc1)C(N)=O [(inip) nmb b F amide] (H-[Inp][dNMe2Nal][d2Nal]F-NH2)
[1]; [4]
  EC50: 0.5 nM
[2]; Table IV
  RAT IV ED50: 5 µg

## NC(=O)CCCNC(=O)[C@@H](Cc1ccc2ccccc2c1)NC(=O)[C@@H](Cc1ccc2ccccc2c1)NC(=O)C1CCNCC1 [(inip) b b ab amide] (H-[Inp][d2Nal][d2Nal][GABA]-NH2; N-terminus assumed)
[2]; Table IV
  RAT IV ED50: 10 µg

## C[C@H](NC(=O)[C@@H](Cc1ccc2ccccc2c1)NC(=O)[C@@H](C)N)C(=O)N[C@@H](Cc1c[nH]c2ccccc12)C(=O)N[C@H](Cc1ccccc1)C(=O)N[C@@H](CCCCN)C(N)=O [GHRP 2, D Ala-D βNal-Ala-Trp-D Phe-Lys-NH2, reference compound] (H-[dA][d2Nal]AW[dF]K-NH2)
[1]; read-out: “Pit” Cell EC50, Table II, prior art compounds
  EC50: 1 nM
[2]; Table II, iv tail vein injection, anesthetized weanling female rats
  Rat IV ED50: 0.35 µg

## CN[C@H](Cc1ccc2ccccc2c1)C(=O)N[C@H](Cc1ccc2ccccc2c1)C(=O)N[C@@H](Cc1ccccc1)C(=O)N[C@@H](CCCCN)C(N)=O [nmb b F K amide] (H-[dNMe2Nal][d2Nal]FK-NH2)
[1]; [5]
  EC50: > 100 nM
[2]; Table III
  RAT IV ED50: 1000 µg

## CN(C(=O)C1CCNCC1)[C@H](Cc1ccc2ccccc2c1)C(=O)N[C@@H](Cc1ccc2ccccc2c1)C(=O)N[C@@H](Cc1ccccc1)C(=O)O [(inip) nmb B F acid] (H-[Inp][dNMe2Nal][2Nal]F-OH)
[1]; [4]
  EC50: 7 nM
[2]; Table IV
  RAT IV ED50: 100 µg

## NC(=O)[C@H](Cc1ccccc1)NC(=O)[C@@H](Cc1c[nH]c2ccccc12)NC(=O)[C@@H](Cc1c[nH]c2ccccc12)NC(=O)C1CCNCC1 [(inip) w w F amide] (H-[Inp][dW][dW]F-NH2)
[1]; [4]
  EC50: 0.9 nM
[2]; Table IV
  RAT IV ED50: 5 µg

## O=C(N[C@H](Cc1ccc2ccccc2c1)C(=O)NCCc1ccc2ccccc2c1)C1CCNCC1 [(inip) b npe, (inip)-DβNal-[N-1-{2-(2-naphthyl)ethyl}] amide]
[1]; [3]
  EC50: 11 nM
[2]; Table V
  RAT IV ED50: 500 µg

## NC(=O)[C@H](Cc1ccccc1)NC(=O)[C@@H](Cc1c[nH]c2ccccc12)NC(=O)[C@@H](Cc1ccc2ccccc2c1)NC(=O)C1CCNCC1 [(inip) b w F amide, (inip)-DβNal-(D-Trp)-Phe-amide] (H-[Inp][d2Nal][dW]F-NH2)
[1]; [4]
  EC50: 0.1 nM
[2]; Table IV
  RAT IV ED50: 0.67 µg

## NC(=O)[C@@H]1Cc2ccccc2CN1C(=O)[C@@H](Cc1ccc2ccccc2c1)NC(=O)[C@@H](Cc1ccc2ccccc2c1)NC(=O)C1CCNCC1 [(inip) b b (Tic) amide] (H-[Inp][d2Nal][d2Nal][Tic]-NH2)
[2]; Table IV
  RAT IV ED50: 10 µg

## NCCCCCC(=O)N[C@H](Cc1ccc2ccccc2c1)C(=O)N[C@H](Cc1ccc2ccccc2c1)C(=O)N[C@@H](Cc1ccccc1)C(=O)N[C@@H](CCCCN)C(N)=O [(ahx) b b F K amide] (H-[Ahx][d2Nal][d2Nal]FK-NH2)
[2]; Table III
  RAT IV ED50: 250 µg

## NCCC[C@@H](NC(=O)[C@@H](Cc1ccc2ccccc2c1)NC(=O)[C@@H](Cc1ccc2ccccc2c1)NC(=O)C1CCNCC1)C(N)=O [(inip) b b o amide] (H-[Inp][d2Nal][d2Nal][dOrn]-NH2)
[1]; [4]
  EC50: 10 nM

## NCCCCC(=O)N[C@H](Cc1ccc2ccccc2c1)C(=O)N[C@H](Cc1ccc2ccccc2c1)C(=O)NCCc1ccccc1 [(Ava) b b fem] (H-[Ava]-[d2Nal]-[d2Nal]-NHPhenethyl)
[1]; [4]
  EC50: > 200 nM

## NCCCCC(=O)N[C@H](Cc1ccc2ccccc2c1)C(=O)N[C@@H](CO)Cc1ccc2ccccc2c1 [(Ava) b bol]
[1]; [3]
  EC50: 190 nM

## O=C(N[C@H](Cc1ccc2ccccc2c1)C(=O)N[C@H](CO)Cc1ccc2ccccc2c1)C1CCNCC1 [(inip) b Bol]
[1]; [3]
  EC50: 100 nM

## NC(=O)[C@H](Cc1ccccc1)NC(=O)[C@@H](Cc1ccccc1)NC(=O)[C@@H](Cc1ccc2ccccc2c1)NC(=O)C1CCNCC1 [(inip) b f F amide] (H-[Inp][d2Nal][dF]F-NH2)
[1]; [4]
  EC50: 79 nM

## NCCCCCNC(=O)[C@@H](Cc1ccc2ccccc2c1)NC(=O)[C@@H](Cc1ccc2ccccc2c1)NC(=O)C1CCNCC1 [(inip) b b pam]
[1]; [4]
  EC50: 43 nM

## NCCCC[C@H](NC(=O)[C@H](Cc1ccc(O)cc1)NC(=O)[C@@H](Cc1ccc2ccccc2c1)NC(=O)[C@@H](Cc1ccc2ccccc2c1)NC(=O)C1CCNCC1)C(N)=O [(inip) b b Y K amide] (H-[Inp][d2Nal][d2Nal]YK-NH2)
[1]; [5]
  EC50: 0.2 nM

## O=C(N[C@H](Cc1ccc2ccccc2c1)C(=O)N[C@H](Cc1ccc2ccccc2c1)C(=O)O)C1CCNCC1 [(inip) b b acid] (H-[Inp]-[d2Nal]-[d2Nal]-OH)
[1]; [3]
  EC50: 82 nM

## NCCCC[C@H](NC(=O)[C@H](Cc1ccccc1)NC(=O)[C@@H](Cc1c[nH]c2ccccc12)NC(=O)[C@@H](Cc1ccc2ccccc2c1)NC(=O)C1CCNCC1)C(N)=O [(inip) b w F K amide] (H-[Inp][d2Nal][dW]FK-NH2)
[2]; Table III
  RAT IV ED50: 0.070 µg

## CN(C)C(=O)C(Cc1ccccc1)NC(=O)[C@@H](Cc1ccc2ccccc2c1)NC(=O)[C@@H](Cc1ccc2ccccc2c1)NC(=O)C1CCNCC1 (single isomer, unassigned) [(inip) b b F dam]
[2]; Table III
  RAT IV ED50: 10 µg

## CN(C(=O)[C@@H](Cc1ccc2ccccc2c1)NC(=O)C1CCN(C(=O)OC(C)(C)C)CC1)[C@@H](CN)Cc1ccc2ccccc2c1 [Boc (inip) b mbm]
[1]; [3]
  EC50: 13 nM

From US7094869B2, “Low molecular weight peptidomimetic growth hormone secretagogues” (Genentech, Inc., priority 1994, dated 2006)
